The numbers were not newly measured in US8524285B2, “Nutraceutical mangosteen composition” (DBC, LLC, priority 2002, dated 2013), which cites them from elsewhere.

The target in one data set is T1, type A monoamine oxidase (Homo sapiens, UniProt P21397).
T1 sequence (P21397 1-527): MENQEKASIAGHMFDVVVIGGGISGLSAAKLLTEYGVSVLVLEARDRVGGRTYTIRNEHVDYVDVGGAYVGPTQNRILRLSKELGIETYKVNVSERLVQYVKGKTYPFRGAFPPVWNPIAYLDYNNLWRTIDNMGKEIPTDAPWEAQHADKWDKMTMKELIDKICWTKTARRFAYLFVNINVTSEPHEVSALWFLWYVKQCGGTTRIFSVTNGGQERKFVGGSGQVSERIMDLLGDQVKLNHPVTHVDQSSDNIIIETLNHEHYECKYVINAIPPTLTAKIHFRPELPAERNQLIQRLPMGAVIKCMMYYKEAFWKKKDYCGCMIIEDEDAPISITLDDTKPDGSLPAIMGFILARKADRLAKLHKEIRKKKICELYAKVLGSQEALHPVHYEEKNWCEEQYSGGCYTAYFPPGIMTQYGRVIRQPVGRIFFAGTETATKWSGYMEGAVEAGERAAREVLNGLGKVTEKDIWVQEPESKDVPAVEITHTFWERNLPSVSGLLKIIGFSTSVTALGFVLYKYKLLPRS
The note with it: Nakatani et al., 63 Biochemical Pharmacology 73-79 (2002).

The next data set deals with T2, type B monoamine oxidase (Homo sapiens, UniProt P27338).
T2 sequence (P27338 1-520): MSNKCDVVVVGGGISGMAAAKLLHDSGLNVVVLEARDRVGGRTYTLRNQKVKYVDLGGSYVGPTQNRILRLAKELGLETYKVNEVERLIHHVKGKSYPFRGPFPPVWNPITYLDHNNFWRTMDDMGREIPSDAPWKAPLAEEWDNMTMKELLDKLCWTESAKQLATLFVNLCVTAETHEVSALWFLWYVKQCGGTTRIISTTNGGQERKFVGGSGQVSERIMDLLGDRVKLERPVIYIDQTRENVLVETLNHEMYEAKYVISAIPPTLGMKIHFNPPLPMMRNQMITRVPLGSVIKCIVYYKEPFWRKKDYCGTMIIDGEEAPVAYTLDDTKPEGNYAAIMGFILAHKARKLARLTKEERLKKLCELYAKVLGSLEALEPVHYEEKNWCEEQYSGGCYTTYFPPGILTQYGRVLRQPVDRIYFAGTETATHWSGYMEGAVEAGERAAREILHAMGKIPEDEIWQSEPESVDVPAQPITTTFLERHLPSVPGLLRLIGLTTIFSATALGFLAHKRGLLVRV
The note with it: Nakatani et al., 63 Biochemical Pharmacology 73-79 (2002).

The target of another data set is COX-1 (Homo sapiens, UniProt P23219). The note with it: constitutive isoform; Nakatani et al. (2002).
Chain of COX-1 (P23219 24-599): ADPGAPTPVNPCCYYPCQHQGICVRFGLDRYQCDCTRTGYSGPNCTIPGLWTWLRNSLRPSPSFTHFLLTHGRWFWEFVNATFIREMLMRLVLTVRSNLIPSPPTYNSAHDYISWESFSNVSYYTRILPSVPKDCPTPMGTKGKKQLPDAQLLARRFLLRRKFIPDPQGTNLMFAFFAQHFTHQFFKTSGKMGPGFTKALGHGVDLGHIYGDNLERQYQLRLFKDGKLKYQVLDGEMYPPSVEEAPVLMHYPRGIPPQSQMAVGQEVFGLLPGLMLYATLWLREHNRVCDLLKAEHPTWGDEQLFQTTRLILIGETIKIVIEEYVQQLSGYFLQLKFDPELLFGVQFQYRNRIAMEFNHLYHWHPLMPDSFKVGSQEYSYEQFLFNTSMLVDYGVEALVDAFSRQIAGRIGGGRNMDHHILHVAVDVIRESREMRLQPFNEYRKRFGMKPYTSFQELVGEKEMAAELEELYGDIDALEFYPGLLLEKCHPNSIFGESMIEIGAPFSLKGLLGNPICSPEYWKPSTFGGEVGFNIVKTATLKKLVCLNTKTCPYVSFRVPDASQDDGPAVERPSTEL
The subject of data set [1] is prostaglandin E2 synthesis. The conditions noted are these: Nakatani et al. (2002).

Consider `CC(C)=CCc1c(O)cc2oc3cc(O)c(O)c(CC=C(C)C)c3c(=O)c2c1O` [γ-mangostin], for which, at type A monoamine oxidase, the “inhibition of type A monoamine oxidase” value was “inhibits”. Moreover, the “inhibition of type B monoamine oxidase” value on type B monoamine oxidase is “inhibits”. For the same molecule, at COX-1, the “inhibition of COX-1 activity” value is given as “directly inhibit”. The “inhibition of prostaglandin E2 synthesis” value in data set [1] is “inhibits”.
